One block for each compound: values may come before it.
Tests used:
[1] = molecular target: T1, Metabotropic glutamate receptor 2 (Homo sapiens, UniProt Q14416)
Description: Displacement of [3H]-LY459477 from recombinant human mGlu2 receptor expressed in hamster AV12 cell membranes co-expressing rat EAAT1 incubated for 90 mins by top count scintillation method

[2] = molecular target: T1, Metabotropic glutamate receptor 2; remark: listed apart in the source
Description: Antagonist activity at human recombinant mGlu2 receptor stably expressed in golden hamster AV12 cells co-expressing rat EAAT1 assessed as reduction in DCG IV-induced inhibition of forskolin-stimulated cAMP accumulation preincubated for 20 mins followed by incubation with cAMP-d2 conjugate and anti-cAMP cryptate for 1 hr by HTRF assay

[3] = Unbound brain concentration in CD1 mouse at 3 mg/kg, ip administered as single dose by LC-MS/MS analysis; type: ADME, organism-based; conditions: in vivo
[4] = Antagonist activity at human recombinant mGlu7 stably expressed in golden hamster AV12 cell membrane co-expressing Galpha15 assessed as reduction in glutamate-induced calcium influx incubated for 90 to 120 min by Fluo-4-AM dye based FLIPR assay; type: cell membranes
[5] = Agonist activity at human recombinant mGlu7 stably expressed in golden hamster AV12 cell membrane co-expressing Galpha15 assessed as assessed as increase in calcium influx incubated for 90 to 120 min by Fluo-4-AM dye based FLIPR assay; type: cell membranes
[6] = Dose normalized AUC in CD1 mouse plasma in fasting state at 3.3 mg/kg, ip administered as single dose measured after 24 hrs by LC-MS/MS analysis; type: ADME, organism-based; conditions: in vivo
[7] = Metabolic stability of compound in human hepatocytes assessed as parent compound loss at 2 uM; type: ADME, cell-based, Hepatocyte; conditions: read-out: Drug degradation
[8] = Cmax in CD1 mouse plasma in fasting state at 1.1 mg/kg, ip administered as single dose measured after 24 hrs by LC-MS/MS analysis; type: ADME, organism-based; parameters: route intraperitoneal, dose 1.1 mg/kg, time 24 hrs
CYP2D6 = CYP2D6 (Homo sapiens, UniProt P10635); test: Inhibition of human CYP2D6 at 10 uM relative to control; type: ADME
Mus musculus [9] = test: Antidepressant activity in male Swiss mouse assessed as reduction in immobility time at 1 to 10 mg/kg, ip measured for last 4 mins of 6 mins test by forced swim test relative to control; type: functional; conditions: dose 1-10 mg/kg, 0.1 h
[10] = molecular target: T2, Metabotropic glutamate receptor 5 (Homo sapiens, UniProt P41594); test: Agonist activity at human recombinant mGlu5 stably expressed in golden hamster AV12 cell membrane co-expressing Gq assessed as assessed as increase in calcium influx incubated for 90 to 120 min by Fluo-4-AM dye based FLIPR assay; type: functional, cell membranes
[11] = Unbound plasma concentration in CD1 mouse at 3 mg/kg, ip administered as single dose by LC-MS/MS analysis; type: ADME, organism-based; conditions: in vivo
[12] = molecular target: T3, Metabotropic glutamate receptor 6 (Homo sapiens, UniProt O15303); test: Agonist activity at human recombinant mGlu6 stably expressed in golden hamster AV12 cell membrane co-expressing Galpha15 assessed as assessed as increase in calcium influx incubated for 90 to 120 min by Fluo-4-AM dye based FLIPR assay; type: functional, cell membranes
[13] = Tmax in CD1 mouse plasma in fasting state at 1.1 mg/kg, ip administered as single dose measured after 24 hrs by LC-MS/MS analysis; type: ADME, organism-based
[14] = Metabolic stability of compound in rat hepatocytes assessed as parent compound loss at 2 uM; type: ADME, cell-based, Hepatocyte; conditions: read-out: Drug degradation
Mus musculus [15] = test: Antidepressant activity in ip dosed male Swiss mouse assessed as reduction in immobility time measured for last 4 mins of 6 mins test by forced swim test; type: functional; conditions: 0.1 h
[16] = AUC (0 to 24 hrs) in CD1 mouse plasma in fasting state at 11 mg/kg, ip administered as single dose measured after 24 hrs by LC-MS/MS analysis; type: ADME, organism-based; parameters: route intraperitoneal, dose 11 mg/kg, time 24 hrs
[17] = molecular target: T2, Metabotropic glutamate receptor 5; test: Antagonist activity at human recombinant mGlu5 stably expressed in golden hamster AV12 cell membrane co-expressing Gq assessed as reduction in glutamate-induced calcium influx incubated for 90 to 120 min by Fluo-4-AM dye based FLIPR assay; type: functional, cell membranes
[18] = molecular target: T4, Metabotropic glutamate receptor 3 (Homo sapiens, UniProt Q14832); test: Displacement of [3H]-LY459477 from recombinant human mGlu3 receptor expressed in hamster AV12 cell membranes co-expressing rat EAAT1 incubated for 90 mins by top count scintillation method; parameters: species or system Cell membrane
[19] = Unbound plasma concentration in CD1 mouse at 1 mg/kg, ip administered as single dose by LC-MS/MS analysis; type: ADME, organism-based; conditions: in vivo
[20] = Half life in CD1 mouse plasma in fasting state at 11 mg/kg, ip administered as single dose measured after 24 hrs by LC-MS/MS analysis; type: ADME, organism-based
[21] = Metabolic stability of compound in mouse hepatocytes assessed as parent compound loss at 2 uM; type: ADME, cell-based, Hepatocyte; conditions: read-out: Drug degradation
[22] = Dose normalized AUC in CD1 mouse plasma in fasting state at 11 mg/kg, ip administered as single dose measured after 24 hrs by LC-MS/MS analysis; type: ADME, organism-based; conditions: in vivo
[23] = AUC (0 to 24 hrs) in CD1 mouse plasma in fasting state at 3.3 mg/kg, ip administered as single dose measured after 24 hrs by LC-MS/MS analysis; type: ADME, organism-based; parameters: route intraperitoneal, time 24 hrs, dose 3.3 mg/kg
[24] = Half life in CD1 mouse plasma in fasting state at 1.1 mg/kg, ip administered as single dose measured after 24 hrs by LC-MS/MS analysis; type: ADME, organism-based
[25] = Metabolic stability of compound in dog hepatocytes assessed as parent compound loss at 2 uM; type: ADME, cell-based, Canis lupus familiaris, Hepatocyte; conditions: read-out: Drug degradation
[26] = molecular target: T5, Metabotropic glutamate receptor 1 (Homo sapiens, UniProt Q13255); test: Antagonist activity at human recombinant mGlu1 stably expressed in golden hamster AV12 cell membrane co-expressing Gq assessed as reduction in glutamate-induced calcium influx incubated for 90 to 120 min by Fluo-4-AM dye based FLIPR assay; type: functional, cell membranes
[27] = Unbound plasma concentration in CD1 mouse at 10 mg/kg, ip administered as single dose by LC-MS/MS analysis; type: ADME, organism-based; conditions: in vivo
[28] = Cmax in CD1 mouse plasma in fasting state at 11 mg/kg, ip administered as single dose measured after 24 hrs by LC-MS/MS analysis; type: ADME, organism-based; parameters: route intraperitoneal, dose 11 mg/kg, time 24 hrs
[29] = Protein binding in human plasma assessed as unbound fraction; type: ADME, cell-free
[30] = molecular target: T6, Metabotropic glutamate receptor 4 (Homo sapiens, UniProt Q14833); test: Agonist activity at human recombinant mGlu4 stably expressed in golden hamster AV12 cell membrane co-expressing Galpha15 assessed as assessed as increase in calcium influx incubated for 90 to 120 min by Fluo-4-AM dye based FLIPR assay; type: functional, cell membranes
[31] = Half life in CD1 mouse plasma in fasting state at 3.3 mg/kg, ip administered as single dose measured after 24 hrs by LC-MS/MS analysis; type: ADME, organism-based
[32] = Protein binding in rat plasma assessed as unbound fraction; type: ADME, cell-free
[33] = Tmax in CD1 mouse plasma in fasting state at 11 mg/kg, ip administered as single dose measured after 24 hrs by LC-MS/MS analysis; type: ADME, organism-based
[34] = molecular target: T3, Metabotropic glutamate receptor 6; test: Antagonist activity at human recombinant mGlu6 stably expressed in golden hamster AV12 cell membrane co-expressing Galpha15 assessed as reduction in glutamate-induced calcium influx incubated for 90 to 120 min by Fluo-4-AM dye based FLIPR assay; type: functional, cell membranes
[35] = molecular target: T5, Metabotropic glutamate receptor 1; test: Agonist activity at human recombinant mGlu1 stably expressed in golden hamster AV12 cell membrane co-expressing Gq assessed as assessed as increase in calcium influx incubated for 90 to 120 min by Fluo-4-AM dye based FLIPR assay; type: functional, cell membranes
[36] = Cmax in CD1 mouse plasma in fasting state at 3.3 mg/kg, ip administered as single dose measured after 24 hrs by LC-MS/MS analysis; type: ADME, organism-based; parameters: route intraperitoneal, dose 3.3 mg/kg, time 24 hrs
[37] = molecular target: T6, Metabotropic glutamate receptor 4; test: Antagonist activity human recombinant mGlu4 stably expressed in golden hamster AV12 cell membrane co-expressing Galpha15 assessed as reduction in glutamate-induced calcium influx incubated for 90 to 120 min by Fluo-4-AM dye based FLIPR assay; type: functional, cell membranes
CYP2C9 = CYP2C9 (Homo sapiens, UniProt P11712); test: Inhibition of human CYP2C9 at 10 uM relative to control; type: ADME
[38] = Clearance in male Sprague-Dawley rat at 0.3 to 10 mg/kg, iv; type: ADME, organism-based; conditions: in vivo, dose 0.3-10 mg/kg
[39] = molecular target: T4, Metabotropic glutamate receptor 3; test: Antagonist activity at human recombinant mGlu3 stably expressed in golden hamster AV12 cell membrane co-expressing Galpha15 assessed as assessed as reduction in glutamate-induced calcium influx incubated for 90 to 120 min by Fluo-4-AM dye based FLIPR assay; type: functional, cell membranes
[40] = Unbound brain concentration in CD1 mouse at 1 mg/kg, ip administered as single dose by LC-MS/MS analysis; type: ADME, organism-based; conditions: in vivo
[41] = AUC (0 to 24 hrs) in CD1 mouse plasma in fasting state at 1.1 mg/kg, ip administered as single dose measured after 24 hrs by LC-MS/MS analysis; type: ADME, organism-based; parameters: route intraperitoneal, dose 1.1 mg/kg, time 24 hrs
[42] = Aqueous solubility of compound at pH 7.4; type: physicochemical; conditions: aqueous medium
[43] = Tmax in CD1 mouse plasma in fasting state at 3.3 mg/kg, ip administered as single dose measured after 24 hrs by LC-MS/MS analysis; type: ADME, organism-based
[44] = Dose normalized AUC in CD1 mouse plasma in fasting state at 1.1 mg/kg, ip administered as single dose measured after 24 hrs by LC-MS/MS analysis; type: ADME, organism-based; conditions: in vivo
CYP3A4 = CYP3A4 (Homo sapiens, UniProt P08684); test: Inhibition of human CYP3A4 at 10 uM relative to control; type: ADME
[45] = Unbound brain concentration in CD1 mouse at 10 mg/kg, ip administered as single dose by LC-MS/MS analysis; type: ADME, organism-based; conditions: in vivo
[46] = molecular target: T4, Metabotropic glutamate receptor 3; test: Antagonist activity at human recombinant mGlu3 receptor stably expressed in golden hamster AV12 cells co-expressing rat EAAT1 assessed as reduction in DCG IV-induced inhibition of forskolin-stimulated cAMP accumulation preincubated for 20 mins followed by incubation with cAMP-d2 conjugate and anti-cAMP cryptate for 1 hr by HTRF assay; type: functional, cell-based

T1 sequence (Q14416 whole entry): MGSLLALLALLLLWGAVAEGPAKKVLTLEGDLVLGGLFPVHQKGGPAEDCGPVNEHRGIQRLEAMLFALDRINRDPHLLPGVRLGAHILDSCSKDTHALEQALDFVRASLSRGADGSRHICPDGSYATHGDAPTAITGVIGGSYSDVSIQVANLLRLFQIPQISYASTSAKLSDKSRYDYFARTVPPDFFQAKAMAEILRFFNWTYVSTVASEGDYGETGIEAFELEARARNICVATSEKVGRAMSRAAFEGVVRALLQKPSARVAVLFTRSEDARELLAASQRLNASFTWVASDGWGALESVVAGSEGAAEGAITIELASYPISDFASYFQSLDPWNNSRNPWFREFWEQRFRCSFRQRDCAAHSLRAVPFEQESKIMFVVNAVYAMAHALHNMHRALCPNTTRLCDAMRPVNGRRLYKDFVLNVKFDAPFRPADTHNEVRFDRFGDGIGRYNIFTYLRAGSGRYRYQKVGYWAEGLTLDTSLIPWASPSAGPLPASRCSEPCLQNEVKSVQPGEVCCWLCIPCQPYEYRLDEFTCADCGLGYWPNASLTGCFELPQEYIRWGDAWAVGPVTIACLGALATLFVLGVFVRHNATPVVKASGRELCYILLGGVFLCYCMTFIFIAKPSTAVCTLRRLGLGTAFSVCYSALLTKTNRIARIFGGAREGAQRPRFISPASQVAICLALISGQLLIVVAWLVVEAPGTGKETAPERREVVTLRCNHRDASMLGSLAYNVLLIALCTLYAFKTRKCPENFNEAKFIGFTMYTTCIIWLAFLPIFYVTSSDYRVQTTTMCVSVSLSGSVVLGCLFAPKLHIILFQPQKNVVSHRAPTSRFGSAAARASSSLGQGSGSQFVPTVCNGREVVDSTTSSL
T4 sequence (Q14832 whole entry): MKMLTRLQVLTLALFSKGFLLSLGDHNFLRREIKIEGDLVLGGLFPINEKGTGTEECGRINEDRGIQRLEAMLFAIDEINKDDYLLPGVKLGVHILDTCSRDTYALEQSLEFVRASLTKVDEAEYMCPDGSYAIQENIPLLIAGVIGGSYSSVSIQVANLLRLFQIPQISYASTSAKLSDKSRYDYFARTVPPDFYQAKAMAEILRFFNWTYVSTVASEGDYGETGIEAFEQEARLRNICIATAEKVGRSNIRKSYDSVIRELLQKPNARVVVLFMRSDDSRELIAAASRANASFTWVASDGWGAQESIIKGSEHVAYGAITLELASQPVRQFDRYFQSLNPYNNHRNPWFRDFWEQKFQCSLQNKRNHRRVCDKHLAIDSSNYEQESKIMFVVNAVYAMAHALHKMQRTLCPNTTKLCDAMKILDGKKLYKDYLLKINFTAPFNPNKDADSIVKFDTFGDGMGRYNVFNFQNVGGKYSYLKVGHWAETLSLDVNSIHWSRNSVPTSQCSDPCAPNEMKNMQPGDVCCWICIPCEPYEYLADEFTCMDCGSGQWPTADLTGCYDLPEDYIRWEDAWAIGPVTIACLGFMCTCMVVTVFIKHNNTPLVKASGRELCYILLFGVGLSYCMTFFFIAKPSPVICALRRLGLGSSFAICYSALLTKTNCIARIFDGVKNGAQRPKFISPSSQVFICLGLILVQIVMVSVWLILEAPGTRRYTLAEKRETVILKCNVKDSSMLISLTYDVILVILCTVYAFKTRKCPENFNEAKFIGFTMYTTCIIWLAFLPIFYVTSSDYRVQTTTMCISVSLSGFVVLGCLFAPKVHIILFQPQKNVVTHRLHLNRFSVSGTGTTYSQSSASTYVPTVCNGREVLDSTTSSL
T5 sequence (Q13255 whole entry): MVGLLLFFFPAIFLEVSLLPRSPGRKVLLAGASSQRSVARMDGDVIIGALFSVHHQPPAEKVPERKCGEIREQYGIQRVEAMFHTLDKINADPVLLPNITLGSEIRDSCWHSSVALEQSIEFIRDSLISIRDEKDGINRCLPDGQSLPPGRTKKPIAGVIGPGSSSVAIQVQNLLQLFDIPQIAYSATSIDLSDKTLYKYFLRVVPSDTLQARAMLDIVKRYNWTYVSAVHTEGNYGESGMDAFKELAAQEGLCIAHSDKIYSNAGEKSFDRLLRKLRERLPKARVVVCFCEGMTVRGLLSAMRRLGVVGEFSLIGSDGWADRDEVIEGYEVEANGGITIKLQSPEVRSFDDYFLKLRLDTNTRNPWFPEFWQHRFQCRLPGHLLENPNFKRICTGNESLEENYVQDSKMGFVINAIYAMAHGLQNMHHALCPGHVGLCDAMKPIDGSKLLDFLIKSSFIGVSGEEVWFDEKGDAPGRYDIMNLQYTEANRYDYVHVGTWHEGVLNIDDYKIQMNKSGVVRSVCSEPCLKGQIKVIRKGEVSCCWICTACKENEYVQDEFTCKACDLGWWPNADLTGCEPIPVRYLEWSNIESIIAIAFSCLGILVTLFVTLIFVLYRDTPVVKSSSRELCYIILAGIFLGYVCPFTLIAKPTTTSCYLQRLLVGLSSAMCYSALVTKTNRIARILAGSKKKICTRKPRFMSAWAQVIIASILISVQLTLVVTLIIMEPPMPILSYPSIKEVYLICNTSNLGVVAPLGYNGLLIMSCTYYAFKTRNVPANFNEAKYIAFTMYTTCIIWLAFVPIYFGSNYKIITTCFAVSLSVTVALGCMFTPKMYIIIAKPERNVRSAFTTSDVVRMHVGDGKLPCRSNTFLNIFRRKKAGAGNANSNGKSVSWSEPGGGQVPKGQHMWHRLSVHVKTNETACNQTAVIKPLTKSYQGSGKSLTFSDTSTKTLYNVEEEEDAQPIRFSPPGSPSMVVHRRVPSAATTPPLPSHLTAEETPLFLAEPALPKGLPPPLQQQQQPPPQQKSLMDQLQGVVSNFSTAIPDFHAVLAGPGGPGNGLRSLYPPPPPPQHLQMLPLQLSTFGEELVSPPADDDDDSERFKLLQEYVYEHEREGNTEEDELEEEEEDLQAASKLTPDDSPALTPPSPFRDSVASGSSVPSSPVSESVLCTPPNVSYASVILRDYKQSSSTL
T2 sequence (P41594 whole entry): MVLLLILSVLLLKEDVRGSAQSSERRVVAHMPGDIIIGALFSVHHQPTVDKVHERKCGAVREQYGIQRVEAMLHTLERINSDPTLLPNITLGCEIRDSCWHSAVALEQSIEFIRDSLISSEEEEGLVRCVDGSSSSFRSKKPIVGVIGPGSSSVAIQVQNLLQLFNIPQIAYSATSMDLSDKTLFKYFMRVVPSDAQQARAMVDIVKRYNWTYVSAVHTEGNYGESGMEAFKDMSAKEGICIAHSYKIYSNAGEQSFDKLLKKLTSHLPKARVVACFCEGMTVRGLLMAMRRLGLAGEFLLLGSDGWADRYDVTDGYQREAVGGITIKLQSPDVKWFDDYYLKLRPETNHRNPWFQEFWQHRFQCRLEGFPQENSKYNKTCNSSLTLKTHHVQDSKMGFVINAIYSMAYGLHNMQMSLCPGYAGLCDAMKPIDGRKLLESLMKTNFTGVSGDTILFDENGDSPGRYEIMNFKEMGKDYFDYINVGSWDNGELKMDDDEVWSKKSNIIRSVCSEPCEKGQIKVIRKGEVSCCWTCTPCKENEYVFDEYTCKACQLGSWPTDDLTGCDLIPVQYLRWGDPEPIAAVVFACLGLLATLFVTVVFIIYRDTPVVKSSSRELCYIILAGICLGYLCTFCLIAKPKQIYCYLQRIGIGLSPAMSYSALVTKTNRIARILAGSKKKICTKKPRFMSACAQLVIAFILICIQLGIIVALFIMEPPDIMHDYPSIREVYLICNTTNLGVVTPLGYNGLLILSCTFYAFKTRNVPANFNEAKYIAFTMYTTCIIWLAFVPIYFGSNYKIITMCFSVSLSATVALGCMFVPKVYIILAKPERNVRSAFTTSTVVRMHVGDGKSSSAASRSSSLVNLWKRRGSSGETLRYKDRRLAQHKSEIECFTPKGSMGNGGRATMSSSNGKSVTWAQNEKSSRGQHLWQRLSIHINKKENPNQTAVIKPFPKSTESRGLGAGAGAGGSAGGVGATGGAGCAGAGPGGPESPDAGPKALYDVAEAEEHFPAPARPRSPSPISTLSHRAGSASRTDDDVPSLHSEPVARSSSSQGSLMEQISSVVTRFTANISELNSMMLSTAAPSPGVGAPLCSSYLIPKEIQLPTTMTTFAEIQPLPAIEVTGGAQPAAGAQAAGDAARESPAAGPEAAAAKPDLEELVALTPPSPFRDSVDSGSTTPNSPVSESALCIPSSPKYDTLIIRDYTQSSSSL
T3 sequence (O15303 whole entry): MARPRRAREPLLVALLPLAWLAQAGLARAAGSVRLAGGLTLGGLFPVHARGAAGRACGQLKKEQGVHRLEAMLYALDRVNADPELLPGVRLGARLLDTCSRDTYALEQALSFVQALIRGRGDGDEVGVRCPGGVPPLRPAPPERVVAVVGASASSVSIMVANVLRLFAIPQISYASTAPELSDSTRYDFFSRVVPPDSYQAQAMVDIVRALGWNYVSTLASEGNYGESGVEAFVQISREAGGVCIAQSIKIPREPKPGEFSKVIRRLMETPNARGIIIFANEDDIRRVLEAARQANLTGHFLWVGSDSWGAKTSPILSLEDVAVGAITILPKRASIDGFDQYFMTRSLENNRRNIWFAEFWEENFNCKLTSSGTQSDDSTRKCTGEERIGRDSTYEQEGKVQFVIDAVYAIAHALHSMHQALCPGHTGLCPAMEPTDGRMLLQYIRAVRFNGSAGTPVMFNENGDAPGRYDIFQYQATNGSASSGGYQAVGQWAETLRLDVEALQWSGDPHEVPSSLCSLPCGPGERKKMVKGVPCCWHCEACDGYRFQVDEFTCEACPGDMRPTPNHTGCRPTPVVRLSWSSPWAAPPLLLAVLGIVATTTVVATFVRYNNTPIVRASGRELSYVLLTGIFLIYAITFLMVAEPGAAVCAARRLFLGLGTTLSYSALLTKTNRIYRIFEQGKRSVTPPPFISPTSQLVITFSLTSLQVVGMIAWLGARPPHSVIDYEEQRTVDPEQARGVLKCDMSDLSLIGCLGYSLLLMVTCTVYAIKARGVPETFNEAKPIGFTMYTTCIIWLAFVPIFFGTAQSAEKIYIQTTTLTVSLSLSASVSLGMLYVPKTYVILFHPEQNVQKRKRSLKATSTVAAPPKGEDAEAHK

- Drug uptake(free) [3]: 47.3 nM
- IC50 [4]: 1260 nM
- EC50 [5]: > 16700 nM
- AUC/dose [6]: 4601 nM·h/mg/kg
- metabolised at 2 µM [7]: < 15%
- Cmax [8]: 4.17 µM
- inhibition at 10 µM (CYP2D6): < 10%
- EC50 [10]: > 25000 nM
- Cp(f) [11]: 3.956 µM
- EC50 [12]: > 25000 nM
- Tmax [13]: 15 min
- metabolised at 2 µM [14]: < 15%
- AUC(0-t) at 24 h [16]: 45.5 µM·h
- IC50 [17]: > 12500 nM
- Ki [18]: 2.5 nM
- Cp(f) [19]: 0.84 µM
- half-life [20]: 64.2 min
- metabolised at 2 µM [21]: < 15%
- AUC/dose [22]: 4134 nM·h/mg/kg
- AUC(0-t) at 24 h [23]: 15.2 µM·h
- half-life [24]: 42 min
- metabolised at 2 µM [25]: < 15%
- IC50 [26]: > 12500 nM
- Cp(f) [27]: 7.731 µM
- Cmax [28]: 38.4 µM
- fraction unbound [29]: > 0.6
- EC50 [30]: > 25000 nM
- half-life [31]: 30 min
- fraction unbound [32]: > 0.6
- Tmax [33]: 15 min
- IC50 [34]: 4010 nM
- EC50 [35]: > 25000 nM
- Cmax [36]: 20.6 µM
- IC50 [37]: > 12500 nM
- inhibition at 10 µM (CYP2C9): < 10%
- clearance [38]: 5.83 mL/min/kg
- IC50 [39]: 2.5 nM
- Drug uptake(free) [40]: 8.1 nM
- AUC(0-t) at 24 h [41]: 5.03 µM·h
- solubility [42]: > 100 µM
- Tmax [43]: 15 min
- AUC/dose [44]: 4571 nM·h/mg/kg
- inhibition at 10 µM (CYP3A4): < 10%
- Drug uptake(free) [45]: 151.9 nM
SMILES: Cl.N[C@]1(C(=O)O)[C@@H]2[C@@H](C(=O)O)[C@@H]2[C@H](O)[C@H]1CSc1ccc(F)c(F)c1
- %max (Mus musculus [9]): 67.4%
- ED60 (Mus musculus [15]): 4.9 mg/kg

- IC50 [46]: 163 nM
- Ki [1]: 24 nM
- Ki [18]: 36.1 nM
- IC50 [2]: 45.4 nM
SMILES: Cc1cc(SC[C@@H]2[C@@H](N)[C@H]3[C@H](C(=O)O)[C@H]3[C@]2(N)C(=O)O)ccc1F

Continued, compound first:

SMILES: CC(C)SC[C@@H]1[C@@H](O)[C@H]2[C@H](C(=O)O)[C@H]2[C@]1(N)C(=O)O
- Ki [1]: 1200 nM
- IC50 [2]: 2280 nM

SMILES: N[C@]1(C(=O)O)[C@@H]2[C@@H](C(=O)O)[C@@H]2[C@H](O)[C@H]1CSc1ccccc1F
- IC50 [46]: 967 nM
- Ki [1]: 728 nM
- Ki [18]: 369 nM
- IC50 [2]: 1440 nM

SMILES: Cc1ccc(SC[C@@H]2[C@@H](O)[C@H]3[C@H](C(=O)O)[C@H]3[C@]2(N)C(=O)O)cc1C
- Ki [1]: 14.2 nM
- IC50 [2]: 27.6 nM

Source: ChEMBL document CHEMBL4715808, “Discovery of (1S,2R,3S,4S,5R,6R)-2-Amino-3-[(3,4-difluorophenyl)sulfanylmethyl]-4-hydroxy-bicyclo[3.1.0]hexane-2,6-dicarboxylic Acid Hydrochloride (LY3020371·HCl): A Potent, Metabotropic Glutamate 2/3 Receptor Antagonist with Antidepressant-Like Activity” (J Med Chem, 2016)
